# Data published in patent US4010264A, “7-[3-Substituted isoxazol-5-yl]-acetamido-cephalosporanic acids and their anti-bacterial use” (Koninklijke Nederlandsche Gist-en Spiritusfabriek N.V., priority 1970, dated 1977).
# Where a name gives a salt, the structure may show the parent alone. Read-outs that look alike come from different tables or passages of the source.
# Key:
# [1] = test system: Staphylococcus aureus A55; assay: MIC, agar serial dilution test; format: cell-based
# [2] = in vivo; set-up: species or system rabbits; conditions: rabbit, im, 50 mg/kg; for blood level: 4 h
# Text: C. Serum levels of the tested compound and dicloxacillin.
# [3] = test system: Diplococcus pneumoniae L 54; assay: MIC, agar serial dilution test; format: cell-based; conditions: Streptococcus pneumoniae
# [4] = test system: serum protein; assay: binding to serum protein; format: in vitro ADME
# [5] = test system: Staphylococcus aureus A 321; assay: in vivo infection test in mice; conditions: A321, in Mus musculus
# [6] = test system: Staphylococcus aureus A 2001; assay: in vivo infection test in mice; conditions: A2001, in Mus musculus
# [7] = test system: Staphylococcus aureus A 321; assay: prophylactic experiment against an infection in mice; format: in vivo, female mice (Swiss)
# Text: B. Activity of the compound of example III in a prophylactic experiment against an infection with Staphylococcus aureus A 321. […] Administered doses: Tested compound dissolved in physiological NaCl-solution. Group A: one dose administered four hours before the intraperitoneal infection Group B: one dose administered two hours before the intraperitoneal infection.
# [8] = test system: Brucella melitensis A488; assay: microbe, parasite or virus in culture; format: cell-based; conditions: A488, 24 h
# [9] = test system: Klebsiella pneumoniae A809; assay: MIC, agar serial dilution test; format: cell-based
# [10] = test system: Pasteurella multocida A723; assay: MIC, agar serial dilution test; format: cell-based
# [11] = test system: Staphylococcus aureus A321; assay: MIC, agar serial dilution test; format: cell-based
# [12] = test system: Bacillus subtilis ATCC 6633; assay: MIC, agar serial dilution test; format: cell-based
# [13] = test system: Streptococcus faecalis L 80; assay: MIC, agar serial dilution test; format: cell-based; conditions: Enterococcus faecalis
# [14] = test system: Staphylococcus aureus A355 (penicillinase-producing); assay: MIC, agar serial dilution test; conditions: 24 h
# [15] = test system: Staphylococcus aureus A 2000; assay: in vivo infection test in mice; conditions: A2000, in Mus musculus
# [16] = test system: Staphylococcus aureus L160a (penicillinase-producing); assay: MIC, agar serial dilution test; conditions: 24 h
# [17] = test system: Streptococcus haemolyticus A266; assay: MIC, agar serial dilution test; format: cell-based
# [18] = test system: Pseudomonas aeruginosa A 1058; assay: in vivo infection test in mice; conditions: A1058, in Mus musculus
# [19] = test system: test organisms; assay: M.I.C. comparison with dicloxacillin; format: cell-based; conditions: compared with dicloxacillin
# Experimental: Peak blood levels of the two drugs were reached after 1 hour with the tested compound giving levels of 5.4 μg/ml and dicloxacillin 27 μg/ml. After 4 hours, these levels were 2.2 μg/ml and 7.1 μg/ml respectively. […] However, the M.I.C. values for the tested compound were approximately 5 - 10 times less so that the overall result was better and this was reflected in the in vivo results.
# [20] = binding to serum protein; format: in vitro ADME; conditions: serum protein; read-out: extent bound to serum protein
# [21] = test system: Salmonella typhi murium R 172; assay: in vivo infection test in mice; conditions: Salmonella enterica, in Mus musculus
# [22] = test system: Proteus mirabilis O.T.; assay: in vivo infection test in mice; conditions: in Mus musculus
# [23] = secretion of compound in urine after intramuscular administration in rabbits; format: in vivo, rabbits (Nieuw Zeelander); conditions: rabbit, im, 50 mg/kg intramuscular, average, read-out: Secretion of compound in urine in % of the administered dose; for dose excreted at 6 h: after 6 hrs.; for dose excreted at 27 h: after 27 hrs.
# Experimental: (§1) c. […] The rabbits were provided with "Cunicon" and water ad libitum. Each test group consisted of 3 rabbits. The dose was 50 mg/kg using water as the vehicle. […] The contents of the compound in the samples were determined microbiologically (only microbiologically detected amounts, i.e. anti-bacterially active concentrations only have been indicated).
# [24] = test system: Escherichia coli 65161; assay: protection test in mice, Escherichia coli; format: in vivo, female mice (Swiss SPF); conditions: for ED50: ip, 168 h, Escherichia coli 65161 i.p., method of administration intraperitoneal
# [25] = in vivo; conditions: mouse, ip
# [26] = test system: Staphylococcus aureus A 2001; assay: protection test in mice, Staphylococcus aureus; conditions: for ED50: Staphylococcus aureus, A2001, in Mus musculus, sc, 168 h
# [27] = percentages of bound serum by ultrafiltration and dialysis; format: in vitro ADME; conditions: read-out: percentage of bound serum (converted)
# [28] = blood (serum) contents after intramuscular administration in rabbits; format: in vivo, rabbits (Nieuw Zeelander); conditions: rabbit, im, 50 mg/kg intramuscular, average, read-out: Serum level; for concentration at 0.5 h: after 1/2 hr.; for concentration at 0.25 h: after 1/4 hr.; for concentration at 1 h: after 1 hr.; for concentration at 2 h: after 2 hrs.; for concentration at 4 h: after 4 hrs.
# Experimental: as §1
# [29] = Staphylococcus aureus A55, 24 hours at 37° C, read-out: MIC
# [30] = L54, Diplococcus pneumoniae L 54, 24 hours at 37° C, read-out: MIC
# [31] = A321, ip, 2 h, Group B: one dose two hours before i.p. infection, administration i.p.
# [32] = A321, ip, 4 h, Group A: one dose four hours before i.p. infection, administration i.p.
# [33] = A321, po, 2 h, Group B: one dose two hours before i.p. infection, administration per os
# [34] = A321, po, 4 h, Group A: one dose four hours before i.p. infection, administration per os
# [35] = Klebsiella pneumoniae A809, 24 hours at 37° C, read-out: MIC
# [36] = Pasteurella multocida A723, 24 hours at 37° C, read-out: MIC
# [37] = Staphylococcus aureus A321, 24 hours at 37° C, read-out: MIC
# [38] = ATCC6633, Bacillus subtilis ATCC 6633, 24 hours at 37° C, read-out: MIC
# [39] = L80, Streptococcus faecalis L 80, 24 hours at 37° C, read-out: MIC
# [40] = Streptococcus haemolyticus A266, 24 hours at 37° C, read-out: MIC
smiles,measurement,setting,value
"Cc1onc(-c2c(Cl)cccc2Cl)c1C(=O)N[C@@H]1C(=O)N2[C@@H]1SC(C)(C)[C@@H]2C(=O)O [Dicloxacillin, reference compound]",MIC,[1]; [29],0.06 µg/mL
same,Cmax at 1 h,[2],27000 ng/mL
same,Tmax,[2],1 h
same,concentration at 1 h,[2],27000 ng/mL
same,concentration at 2 h,[2],18800 ng/mL
same,concentration at 4 h,[2],7100 ng/mL
same,blood level,[2],7100 ng/mL
same,MIC,[3]; [30],0.5 µg/mL
same,binding to serum protein (in words),[4]; serum protein,almost completely bound to serum protein
same,ED50,[5]; po,92.6 mg/kg
same,ED50,[5]; sc,126 mg/kg
same,ED50,[6]; ip,1.71 mg/kg
same,ED50,[6]; po,110 mg/kg
same,ED50,[6]; sc,133 mg/kg
same,ED50,[7]; [31],46.5 to 100 mg/kg
same,ED50,[7]; [32],< 21.5 mg/kg
same,ED50,[7]; [33],215 to 465 mg/kg
same,ED50,[7]; [34],46.5 to 100 mg/kg
same,MIC,[8],> 100 µg/mL
same,MIC,[9]; [35],25 µg/mL
same,MIC,[10]; [36],6 µg/mL
same,MIC,[11]; [37],0.12 µg/mL
same,MIC,[12]; [38],0.12 µg/mL
same,MIC,[13]; [39],12.5 µg/mL
same,MIC,[14],0.5 µg/mL
same,ED50,[15]; ip,5.84 mg/kg
same,ED50,[15]; po,92.6 mg/kg
same,ED50,[15]; sc,92.6 mg/kg
same,MIC,[16],0.25 µg/mL
same,MIC,[17]; [40],0.06 µg/mL
"CC(=O)OCC1=C(C(=O)O)N2C(=O)C(NC(=O)Cc3cc(-c4c(Cl)cccc4Cl)no3)C2SC1 (stereo not drawn) [Example III, Sodium salt of 7-{[3-(2,6-dichlorophenyl)-isoxazol-5-yl]acetamido}cephalosporanic acid]",MIC,[1]; [29],0.015 µg/mL
same,Cmax at 1 h,[2],5400 ng/mL
same,Tmax,[2],1 h
same,concentration at 1 h,[2],5400 ng/mL
same,concentration at 4 h,[2],2200 ng/mL
same,blood level,[2],2200 ng/mL
same,ED50,[18]; ip,> 215 mg/kg
same,"M.I.C. values, times less than dicloxacillin",[19],5 - 10 times
same,MIC,[3]; [30],0.007 µg/mL
same,fraction bound to serum protein,[20],~0.5
same,amount of free drug in the serum compared with dicloxacillin,"[4]; 50 mg/kg intramuscular, rabbits",of the same order
same,ED50,[5]; po,61.9 mg/kg
same,ED50,[5]; sc,5.11 mg/kg
same,ED50,[6]; ip,2.87 mg/kg
same,ED50,[6]; po,~200 mg/kg
same,ED50,[6]; sc,> 215 mg/kg
same,ED50,[7]; [31],< 21.5 mg/kg
same,ED50,[7]; [32],21.5 to 46.5 mg/kg
same,ED50,[7]; [33],< 21.5 mg/kg
same,ED50,[7]; [34],~465 mg/kg
same,MIC,[8],1 µg/mL
same,MIC,[9]; [35],12.5 µg/mL
same,MIC,[10]; [36],1 µg/mL
same,MIC,[11]; [37],~0.007 µg/mL
same,ED50,[21]; ip,~200 mg/kg
same,MIC,[12]; [38],~0.007 µg/mL
same,MIC,[13]; [39],0.5 µg/mL
same,MIC,[14],0.12 µg/mL
same,ED50,[15]; ip,1.78 mg/kg
same,ED50,[15]; po,> 215 mg/kg
same,ED50,[15]; sc,75 mg/kg
same,MIC,[16],0.06 µg/mL
same,MIC,[17]; [40],~0.007 µg/mL
same,ED50,[22]; ip,~200 mg/kg
"CC(=O)OCC1=C(C(=O)O)N2C(=O)C(NC(=O)Cc3cc(C)no3)C2SC1 (stereo not drawn) [Example XXII, 7-{[3-methyl-isoxazol-5-yl]acetamido}cephalosporanic acid]",MIC,[1]; [29],0.5 µg/mL
same,dose excreted at 6 h,[23],41.4%
same,dose excreted at 27 h,[23],46.9%
same,ED50,[24],100 mg/kg
same,Potency Ratio,"[24]; vs Cephalotin, E. coli 65161, intraperitoneal, limits (0.52-2.53) printed",1.15
same,LD50,[25],> 8000 mg/kg
same,ED50,[26],23 mg/kg
same,Potency Ratio,"[26]; vs Cephalotin, S. aureus A 2001, subcutaneously, limits (0.73-4.92) printed",1.90
same,MIC,[3]; [30],0.5 µg/mL
same,fraction unbound,[27]; dialysis,0.72
same,fraction unbound,[27]; ultrafiltration,0.67
same,MIC,[8],12.5 µg/mL
same,MIC,[9]; [35],3 µg/mL
same,MIC,[10]; [36],3 µg/mL
same,MIC,[11]; [37],0.5 µg/mL
same,MIC,[12]; [38],0.06 µg/mL
same,MIC,[13]; [39],25 µg/mL
same,MIC,[14],1 µg/mL
same,MIC,[16],1 µg/mL
same,concentration at 0.5 h,[28],45000 ng/mL
same,concentration at 0.25 h,[28],57500 ng/mL
same,concentration at 1 h,[28],12300 ng/mL
same,concentration at 2 h,[28],1700 ng/mL
same,concentration at 4 h,[28],< 1000 ng/mL
same,MIC,[17]; [40],0.12 µg/mL
"CC(=O)OCC1=C(C(=O)O)N2C(=O)[C@@H](NC(=O)Cc3cccs3)[C@H]2SC1 [Cephalotin, reference compound]",MIC,"[1]; Staphylococcus aureus, A55, 24 h",0.25 µg/mL
same,dose excreted at 6 h,[23],22.2%
same,dose excreted at 27 h,[23],26.9%
same,ED50,[18]; ip,> 215 mg/kg
same,ED50,[18]; sc,> 215 mg/kg
same,ED50,[24],115 mg/kg
same,LD50,[25],6000 to 8000 mg/kg
same,ED50,[26],43 mg/kg
same,MIC,"[3]; L54, 24 h",0.25 µg/mL
same,ED50,[5]; ip,1.9 mg/kg
same,ED50,[5]; po,14.7 mg/kg
same,ED50,[5]; sc,16.2 mg/kg
same,fraction unbound,[27]; dialysis,~0.3
same,fraction unbound,[27]; ultrafiltration,~0.3
same,ED50,[6]; ip,27.1 mg/kg
same,ED50,[6]; po,> 68.1 mg/kg
same,MIC,[8],6 µg/mL
same,MIC,"[9]; Klebsiella pneumoniae, A809, 24 h",0.5 µg/mL
same,MIC,"[10]; Pasteurella multocida, A723, 24 h",0.25 µg/mL
same,MIC,"[11]; Staphylococcus aureus, A321, 24 h",0.25 µg/mL
same,ED50,[21]; ip,79.4 mg/kg
same,ED50,[21]; sc,~200 mg/kg
same,MIC,"[12]; Bacillus subtilis, ATCC6633, 24 h",0.03 µg/mL
same,MIC,"[13]; L80, 24 h",25 µg/mL
same,MIC,[14],1 µg/mL
same,ED50,[15]; ip,20 mg/kg
same,ED50,[15]; po,147 mg/kg
same,ED50,[15]; sc,110 mg/kg
same,MIC,[16],1 µg/mL
same,concentration at 0.5 h,[28],33900 ng/mL
same,concentration at 0.25 h,[28],73800 ng/mL
same,concentration at 1 h,[28],8500 ng/mL
same,concentration at 2 h,[28],< 1100 ng/mL
same,concentration at 4 h,[28],< 1000 ng/mL
same,MIC,"[17]; Streptococcus, A266, 24 h",0.06 µg/mL
same,ED50,[22]; ip,79.4 mg/kg
same,ED50,[22]; sc,68.1 mg/kg
